Structures are written as SMILES.

The term Ki denotes the dissociation constant of the complex between target and ligand, obtained from inhibition or displacement.

5-hydroxytryptamine receptor 6, sequence (P50406 whole entry): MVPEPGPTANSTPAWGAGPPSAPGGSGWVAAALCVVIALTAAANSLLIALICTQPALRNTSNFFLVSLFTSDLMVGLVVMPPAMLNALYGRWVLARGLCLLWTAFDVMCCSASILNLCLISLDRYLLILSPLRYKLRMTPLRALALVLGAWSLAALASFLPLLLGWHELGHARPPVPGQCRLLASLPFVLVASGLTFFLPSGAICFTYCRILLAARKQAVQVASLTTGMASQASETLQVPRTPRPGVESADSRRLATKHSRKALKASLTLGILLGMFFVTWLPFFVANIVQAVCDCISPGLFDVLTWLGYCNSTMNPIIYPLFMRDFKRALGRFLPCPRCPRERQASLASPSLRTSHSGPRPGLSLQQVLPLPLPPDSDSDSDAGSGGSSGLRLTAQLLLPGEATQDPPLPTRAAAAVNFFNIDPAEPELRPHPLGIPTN

The first assay has as its target 5-hydroxytryptamine receptor 6 (Homo sapiens, UniProt P50406). Description: Displacement of [3H]-LSD from human 5-HT6R expressed in HEK293 cells. It counts as cell-based. For orientation: Displacement assays read how much labelled ligand stays bound in the presence of the test substance.
In the case of `CN1CCN(c2nc(N)nc(Cc3cccc(F)c3)n2)CC1`, the affinity, expressed as Ki, was 0.064 µM. Still for that read-out and setting: next, `COc1cccc(Cc2nc(N)nc(N3CCN(C)CC3)n2)c1`: 0.158 µM; `CN1CCN(c2nc(N)nc(Cc3cccs3)n2)CC1`: 0.305 µM. The same measure, in the same setting: next, `CN1CCN(c2nc(N)nc(Cc3cccc4ccccc34)n2)CC1`: 0.02 µM. On the same count and under the same terms, next, `CN1CCN(c2nc(N)nc(Cc3ccccc3Cl)n2)CC1`: 0.056 µM. In turn, `CN1CCN(c2nc(N)nc(Cc3ccccc3F)n2)CC1` had a Ki of 0.088 µM.

In turn, `Cc1ccc(Cc2nc(N)nc(N3CCN(C)CC3)n2)cc1` gave a Ki of 0.064 µM.

Compound `CN1CCN(c2nc(N)nc(Cc3c[nH]c4ccccc34)n2)CC1` displayed a Ki of 0.022 µM.

Turning to `CN1CCN(c2nc(N)nc(Cc3ccc(F)cc3)n2)CC1`, the inhibition constant Ki turned out to be 0.1 µM. In the case of `CN1CCN(c2nc(N)nc(Cc3ccncc3)n2)CC1`, the Ki was determined as 1.83 µM. On the same count and under the same terms, next, `COc1ccc(Cc2nc(N)nc(N3CCN(C)CC3)n2)cc1`: 0.44 µM.

The compound `CN1CCN(c2nc(N)nc(Cc3ccccc3)n2)CC1` gave a Ki of 0.095 µM. Regarding `Cc1ccccc1Cc1nc(N)nc(N2CCN(C)CC2)n1`, the affinity, expressed as Ki, was 0.08 µM. Same read-out and setting: next, `CN1CCN(c2nc(N)nc(Cc3ccc(Cl)c(Cl)c3)n2)CC1`: 0.032 µM. Still for that read-out and setting: next, `COc1ccccc1Cc1nc(N)nc(N2CCN(C)CC2)n1`: 0.193 µM; `CN1CCN(c2nc(N)nc(Cc3cccc(Cl)c3)n2)CC1`: 0.028 µM.

The next assay has as its system Rattus norvegicus. Description: Antidepressant activity in Wistar rat assessed as decrease in immobility time at 0.3 mg/kg, ip administered 60 mins prior to testing measured for 5 mins by forced swim test. Also on record: scale not given: the % may be the effect or the level left. The assay is classed as functional.
As to `Cc1cccc(Cc2nc(N)nc(N3CCN(C)CC3)n2)c1`, the Activity was 30%. Take `CN1CCN(c2nc(N)nc(Cc3c[nH]c4ccccc34)n2)CC1`: the Activity is 37%. The same measure, in the same setting: next, `CN1CCN(c2nc(N)nc(Cc3cccc(Cl)c3)n2)CC1`: 29%.

The values are drawn from ChEMBL document CHEMBL4033662, “The computer-aided discovery of novel family of the 5-HT6 serotonin receptor ligands among derivatives of 4-benzyl-1,3,5-triazine” (Eur J Med Chem, 2017).
